The target of assay [1] is T1, Human neutrophil elastase (HNE) (Homo sapiens, UniProt P08246).
T1 construct: HNE purified from purulent human sputum (Elastin Products Company, Owensville, MO, USA); purchased Elastin Products Company, Owensville, MO, USA; host or cells: purulent human sputum (natural source)
T1 sequence (P08246 30-247 limits assumed): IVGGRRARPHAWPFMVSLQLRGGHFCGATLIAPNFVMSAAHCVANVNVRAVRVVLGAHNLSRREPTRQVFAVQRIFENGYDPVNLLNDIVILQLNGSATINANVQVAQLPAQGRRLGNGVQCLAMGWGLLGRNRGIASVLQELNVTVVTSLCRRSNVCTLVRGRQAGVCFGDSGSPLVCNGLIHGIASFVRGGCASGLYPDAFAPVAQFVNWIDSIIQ
Kind of assay: Inhibition of HNE proteolysis by peptide aldehyde inhibitors. The class given is biochemical. As to conditions: for Ki: 10 nM active HNE, 100 nM Ac-RM(O2)AA-pNA substrate (Figure 3), 20 min complex formation at RT, 405 nm, Morrison equation for tight-binding inhibitors, three replicate experiments of triplicate measurements; for Relative Potency (fold inhibition enhancement relative to Ac-RMAV-H): ratio of Ki values relative to non-oxidised Ac-RMAV-H. On the procedure:
Figure 3 Dose-response plot of Ac-RMAV-H peptide aldehyde inhibitor variants containing differing oxidation states of the P3 methionine residue. All assays contained 10 nM active HNE and 100 nM Ac-RM(O2)AA-pNA substrate. Data are reported as percent activity remaining compared to uninhibited controls, and data points represent the mean observed from three replicate experiments of triplicate measurements. Error bars show SEM. Where not visible, error bars are smaller than the pictured data point.
(§1) For substrate library kinetic assay screen, reactions were initiated by addition of HNE purified from purulent human sputum (Elastin Products Company, Owensville, MO, USA) to triplicate microplate wells containing each substrate, and the rate of reaction determined spectrophotometrically at 405 nm. Final concentrations were 300 µM substrates and 1 µg/mL HNE in 250 µL assay buffer (100 mM Tris pH 8, 50 mM NaCl, 10% DMF, 0.05% Triton X-100). For in-depth assays of candidate substrates and inhibitors, the active site concentration of HNE was first determined by titration with A1AT. Briefly, 250 nM A1AT was serially diluted in a 96-well microplate to provide a final assay volume of 250 µL. A total of 2.5 µL of HNE stock solution (100 µg/mL) was added to each well and complex formation was allowed to proceed over a period of 20 min at RT. Assays were initiated by addition of Ac-RM(O2)PA-pNA substrate, monitoring the evolution of free para-nitroanilide at 405 nm for 90 s again at RT. Kinetic assays of synthesized pNA substrates were carried out similarly omitting the A1AT and serially diluting the substrates, KM and Vmax values were determined by GraphPad Prism 5.01 (La Jolla, CA, USA) Michaelis–Menten non-linear regression. Assays with peptide aldehyde inhibitors were carried out as with the active site titration. Inhibition constants were calculated in GraphPad Prism by non-linear regression using the Morrison equation for tight-binding inhibitors.

Assay [2] has as its target T1, Human neutrophil elastase (HNE). Kind of assay: Kinetic assays of synthesized pNA substrates (Michaelis-Menten). The class given is biochemical. On the procedure: Figure 2 Substrate concentration versus velocity plot of candidate pNA substrates containing a P1 valine residue (A), or a P1 alanine residue (B), assayed against 3 nM active HNE. […] Data points represent the average rate observed from three replicate experiments of triplicate measurements. […] Error bars show SEM. Where not visible, error bars are smaller than the pictured data point.
as §1

The target is the same in assay [3]. As to conditions: literature value; read-out: KM, previously published value; cited from earlier work. The text has this: The standard substrate MeOSuc-AAPV-pNA was also synthesised to provide a benchmark against other studies. […] Acetylated forms of the P4 arginine substrates were synthesised to assess the effect of a charged N-termin ...

Read-outs that look alike come from different tables or passages of the source. Square brackets hold non-standard residues; d marks the D form. Peptide text beside a SMILES is read from it. * marks the point of attachment. Met(O2) = CS(=O)(=O)CC[C@H](N)C(=O)O; Met(O) = CS(=O)CC[C@H](N)C(=O)O; pNA = O=[N+]([O-])c1ccc(N*)cc1; MeOSuc = COC(=O)CCC(=O)*

As usually defined, the Ki is the dissociation constant of the complex between target and ligand, obtained from inhibition or displacement. The low end stands for a stronger hold on the target, the high end for a looser hold on the target. As for `CC(=O)N[C@@H](CCCNC(=N)N)C(=O)N[C@@H](CCS(C)(=O)=O)C(=O)N[C@@H](C)C(=O)N[C@H](C=O)C(C)C` [Ac-RM(O2)AV-H] (Ac-R[Met(O2)]AV-aldehyde), in assay [1], the affinity, expressed as Ki, was 0.147 µM and the “Relative Potency (fold inhibition enhancement relative to Ac-RMAV-H)” value came to 49.4.

Consider `CC(=O)N[C@@H](CCCNC(=N)N)C(=O)N[C@@H](CC[S+](C)[O-])C(=O)N[C@@H](C)C(=O)N[C@H](C=O)C(C)C` (stereo partly shown) [Ac-RM(O)AV-H] (Ac-R[Met(O)]AV-aldehyde), for which, in assay [1], the affinity corresponds to a Ki of 5.55 µM and the “Relative Potency (fold inhibition enhancement relative to Ac-RMAV-H)” value was determined as 1.3.

As for `CSCC[C@H](NC(=O)[C@H](CCCNC(=N)N)NC(C)=O)C(=O)N[C@@H](C)C(=O)N[C@H](C=O)C(C)C` [Ac-RMAV-H] (Ac-RMAV-aldehyde), in assay [1], affinity was put at a Ki of 7.27 µM and the “Relative Potency (fold inhibition enhancement relative to Ac-RMAV-H)” value came out at 1.

A word on the kcat: it is the maximal rate divided by the concentration of active sites. By Km is commonly meant the concentration of substrate that gives half-maximal velocity. The term kcat/KM denotes the second-order rate constant that governs catalysis at low substrate concentration. Regarding “MeOSuc-AAPV-pNA (SMILES COC(=O)CCC(=O)N[C@@H](C)C(=O)N[C@@H](C)C(=O)N1CCC[C@H]1C(=O)N[C@H](C(=O)Nc1ccc([N+](=O)[O-])cc1)C(C)C) [standard HNE substrate synthesised as benchmark against other studies]”, the kcat in assay [2] (3 nM active HNE (purified from purulent human sputum), 100 mM Tris pH 8, 50 mM NaCl, 10% DMF, 0.05% Triton X-100, RT, 405 nm, Michaelis-Menten non-linear regression, three replicate experiments of triplicate measurements) stood at 2.90 s⁻¹. Also, the Km in assay [2] (3 nM active HNE, 100 mM Tris pH 8, 50 mM NaCl, 10% DMF, 0.05% Triton X-100, RT, 405 nm, Michaelis-Menten non-linear regression, ± SEM) is 153 ± 17.6 µM; in assay [3] it was 140 µM. Also, in assay [2] (catalytic efficiency calculated from kcat and KM, 3 nM active HNE), the kcat/KM is 18900 M⁻¹ s⁻¹.

The record behind these values is PMC8434204, “Discrimination of Methionine Sulfoxide and Sulfone by Human Neutrophil Elastase” (Molecules, 2021).
